From ChEMBL document CHEMBL1130802, “Design and synthesis of a new type of non steroidal human aromatase inhibitors” (Bioorg Med Chem Lett, 1998)
pIC50, pKi: −log10 of the molar value.

Tests used:
[1] = biological target: T1, Aromatase (Homo sapiens, UniProt P11511)
T1 sequence (P11511 whole entry): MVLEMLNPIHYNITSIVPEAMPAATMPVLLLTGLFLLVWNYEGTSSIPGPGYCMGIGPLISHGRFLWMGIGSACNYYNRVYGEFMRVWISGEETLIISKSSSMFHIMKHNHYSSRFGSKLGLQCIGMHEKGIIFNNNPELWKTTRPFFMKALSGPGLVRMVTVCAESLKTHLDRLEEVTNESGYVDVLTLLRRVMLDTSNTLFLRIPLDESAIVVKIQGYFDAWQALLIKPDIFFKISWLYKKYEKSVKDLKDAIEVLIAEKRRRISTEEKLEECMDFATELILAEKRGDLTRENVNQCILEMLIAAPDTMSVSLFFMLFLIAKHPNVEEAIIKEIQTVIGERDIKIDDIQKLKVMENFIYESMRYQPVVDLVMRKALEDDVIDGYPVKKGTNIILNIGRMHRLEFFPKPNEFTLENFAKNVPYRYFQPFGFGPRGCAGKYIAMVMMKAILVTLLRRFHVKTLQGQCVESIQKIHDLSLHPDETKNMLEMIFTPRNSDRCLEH
Description: Inhibition of human aromatase cytochrome P450 19A1 activity

[2] = biological target: T1, Aromatase; remark: listed apart in the source
Description: Inhibition constant for human aromatase cytochrome P450 19A1 activity

Compound: O=C1/C(=C\c2ccncc2)C(c2ccccc2)c2ccccc21 (configuration not stated)
- pIC50 [1]: 6.10
- pKi [2]: 7.99
